*1 amine or outer side, *2 acyl side, *3 side chain or, on linkers, in order; H or OH if unused. Where a SMILES comes first, the peptide text is derived from it. Where no end group is shown, it is not given here. [ ]: non-standard residue; d: D form. The star is where a group is joined. X1 = O=C([C@@]1(O)C[C@@H](O)[C@H](N[*:1])C([C@@H](O)[C@@H](O)CO)O1)[*:2]; Trp(1-Me) = Cn1cc(C[C@H](N)C(=O)O)c2ccccc21; NMeW = CN[C@@H](Cc1c[nH]c2ccccc12)C(=O)O; Phe(3-Br) = N[C@@H](Cc1cccc(Br)c1)C(=O)O; Aad = N[C@@H](CCCC(=O)O)C(=O)O; Aoc(2) = CCCCCC[C@H](N)C(=O)O; Nle = CCCC[C@H](N)C(=O)O; Cbz = O=C(OCc1ccccc1)*
Experiments:
[1] = biological target: T1, CCK-B receptors (CHO-CCK) (Homo sapiens, UniProt P32239); experiment: Calcium flux (Fluo-8) agonist test on CHO-CCK model cells; type: cell-based; settings: for EC50 / % Act-Ave @ 1 nM / % Act-Ave @ 50 nM: CHO-CCK cells; for Agonistic Activity (%) at 10 μM: compound at 10 μM, percentage of signal of 20 nM CCK8 alone; for % Act-Ave @ 1 nM: compound at 1 nM; for % Act-Ave @ 50 nM: compound at 50 nM
T1 construct: expressed in transfected cells; host or cells: CHO (CHO-CCK model cells)
T1 sequence (P32239 1-447): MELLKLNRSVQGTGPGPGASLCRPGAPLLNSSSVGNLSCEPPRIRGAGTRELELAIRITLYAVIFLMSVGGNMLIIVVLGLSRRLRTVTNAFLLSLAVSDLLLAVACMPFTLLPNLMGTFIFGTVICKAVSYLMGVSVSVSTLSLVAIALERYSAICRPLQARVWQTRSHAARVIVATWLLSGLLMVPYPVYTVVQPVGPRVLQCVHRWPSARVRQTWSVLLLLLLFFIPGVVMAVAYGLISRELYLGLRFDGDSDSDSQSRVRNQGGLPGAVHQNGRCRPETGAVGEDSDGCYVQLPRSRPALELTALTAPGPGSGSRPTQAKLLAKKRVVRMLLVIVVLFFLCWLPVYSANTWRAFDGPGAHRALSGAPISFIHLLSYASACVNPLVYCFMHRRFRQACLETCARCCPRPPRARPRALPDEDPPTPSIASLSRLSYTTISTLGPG
Procedure, shortened: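 Agonist-mode Fluo-8 calcium flux read on CHO-CCK cells after dye loading 30 min at 37 °C plus 30 min at room temperature.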

[2] = biological target: T1, CCK-B receptors (CHO-CCK); experiment: Calcium flux (Fluo-8) antagonist test on CHO-CCK model cells in presence of CCK8; type: cell-based
Experimental: The compound was formulated to a 10 mM mother liquor with DMSO, and then diluted into a series of 9 concentrations with a 3-fold gradient to form a 1000× stock solution. […] Prepare 1×Fluo-8 analysis buffer: mix 9 mL of HHBS, 1 mL of 10× Pluronic F127 Plus and 20 μL of Fluo-8 thoroughly for later use. • 3. Add Fluo-8 dye working solution to the cell plate, 100 μL/well. First incubate in a 37° C. incubator for 30 min, and then take it out and incubate at room temperature in the dark for 30 min. • 4. In the process of incubating cells, the compounds to be detected were prepared with HHBS. • 5. […] The agonism/antagonism EC50 of the compound can be obtained by plotting the fitting curve with the agonism/antagonism percentage as Y-axis and the concentration of the compound as X-axis.

[3] = compound alone, 100% = 20 nM CCK8
[4] = compound together with 10 nM CCK8
[5] = Fluo-8 calcium flux, 100% control = 20 nM CCK8

Molecule | % Act-Ave @ 1 nM [1] | % Act-Ave @ 50 nM [1] | other results
CSCC[C@H](NC(=O)[C@H](N)Cc1c[nH]c2ccccc12)C(=O)N[C@@H](CC(=O)O)C(=O)N[C@@H](Cc1ccccc1[N+](=O)[O-])C(N)=O [HT-24, D-Trp-Met-Asp-Phe(2-NO2)-NH2] | – | – | EC50 [1, 3]: 0.206 µM; Agonistic Activity (%) at 10 μM [1]: 50.60%; EC50 [2, 4]: 624 nM
CSCC[C@H](NC(=O)[C@H](N)Cc1c[nH]c2ccccc12)C(=O)N[C@@H](CC(=O)O)C(=O)N[C@@H](Cc1ccccc1F)C(N)=O [HT-25, D-Trp-Met-Asp-Phe(2-F)-NH2] | – | – | EC50 [1, 3]: 0.225 µM; Agonistic Activity (%) at 10 μM [1]: 89.41%; EC50 [2, 4]: 603 nM
CSCC[C@H](NC(=O)[C@H](N)Cc1c[nH]c2ccccc12)C(=O)N[C@@H](CC(=O)O)C(=O)N[C@@H](Cc1cccc(Cl)c1)C(N)=O [HT-26, D-Trp-Met-Asp-Phe(3-Cl)-NH2] | – | – | EC50 [1, 3]: 0.0784 µM; Agonistic Activity (%) at 10 μM [1]: 85.75%; EC50 [2, 4]: 635 nM
CSCC[C@H](NC(=O)[C@H](Cc1c[nH]c2ccccc12)NC(C)=O)C(=O)N[C@@H](CC(=O)O)C(=O)N[C@@H](CCC(=O)O)C(N)=O [HT-197, Ac-Trp-Met-Asp-Gln-NH2] | – | – | EC50 ([2]; in presence of 10 nM CCK8): 1670 nM
CCCC[C@H](NC(=O)[C@H](Cc1c[nH]c2ccccc12)N(C)C(C)=O)C(=O)N[C@@H](CCCC(=O)O)C(=O)N[C@@H](Cc1cccc(Br)c1)C(N)=O [HT-271, Ac-Trp-Nle-Aa-Phe(3-Br)-NH2] (Ac-[NMeW][Nle][Aad][Phe(3-Br)]-NH2) | 40.66% | 104.56% | –
CCCC[C@H](NC(=O)[C@H](Cc1c[nH]c2ccccc12)N(C)C(C)=O)C(=O)N[C@@H](CCCC(=O)O)C(=O)N[C@@H](Cc1cccc(Br)c1)C(N)=O [HT-272, Ac-(N-Me-Trp)-Nle-Aa-Phe(3-Br)-NH2] (Ac-[NMeW][Nle][Aad][Phe(3-Br)]-NH2) | −0.33% | 86.09% | –
CCCC[C@H](NC(=O)[C@H](Cc1c[nH]c2ccccc12)N(C)C(C)=O)C(=O)N[C@@H](CC(=O)O)C(=O)N[C@@H](Cc1cccc(Br)c1)C(N)=O [HT-273, Ac-(N-Me-Trp)-Nle-Asp-Phe(3-Br)-NH2] (Ac-[NMeW][Nle]D[Phe(3-Br)]-NH2) | 52.14% | 96.54% | –
CCCC[C@H](NC(=O)[C@H](Cc1c[nH]c2ccccc12)N(C)C(=O)[C@@]1(O)C[C@@H](O)[C@H](NC(C)=O)C([C@@H](O)[C@@H](O)CO)O1)C(=O)N[C@@H](CC(=O)O)C(=O)N[C@@H](Cc1cccc(Br)c1)C(N)=O (stereo partly drawn) [HT-274, Sia-(N-Me-Trp)-Nle Asp-Phe(3-Br)-NH2] (Ac-[X1][NMeW][Nle]D[Phe(3-Br)]-NH2) | 0.10% | 72.88% | –
CCCC[C@H](NC(=O)[C@H](Cc1c[nH]c2ccccc12)N(C)C(=O)[C@@]1(O)C[C@@H](O)[C@H](NC(C)=O)C([C@@H](O)[C@@H](O)CO)O1)C(=O)N[C@@H](CCCC(=O)O)C(=O)N[C@@H](Cc1cccc(Br)c1)C(N)=O (stereo partly drawn) [HT-275, Trp)-Nle-Aa-Phe(3-Br)-NH2] (Ac-[X1][NMeW][Nle][Aad][Phe(3-Br)]-NH2) | 62.28% | 100.24% | –
CCCC[C@H](NC(=O)[C@H](Cc1c[nH]c2ccccc12)N(C)C(=O)[C@@H](N)CCC(=O)O)C(=O)N[C@@H](CCCC(=O)O)C(=O)N[C@@H](Cc1cccc(Br)c1)C(N)=O [HT-277, Glu-(N-Me-Trp)-Nle-Aa-Phe(3-Br)-NH2] (H-E[NMeW][Nle][Aad][Phe(3-Br)]-NH2) | −0.13% | 13.46% | –
CCCC[C@H](NC(=O)[C@H](Cc1c[nH]c2ccccc12)N(C)C(=O)[C@@]1(O)C[C@@H](O)[C@H](NC(C)=O)C([C@@H](O)[C@@H](O)CO)O1)C(=O)N[C@@H](CC(=O)O)C(=O)N[C@@H](Cc1cccc(Br)c1)C(N)=O (stereo partly drawn) [HT-278, Sia-(N-Me-Trp)-Nle-Asp-Phe(3-Br)-NH2] (Ac-[X1][NMeW][Nle]D[Phe(3-Br)]-NH2) | 40.85% | 93.12% | –
CCCCCC[C@H](NC(=O)[C@H](Cc1cn(C)c2ccccc12)NC(=O)OCc1ccccc1)C(=O)N[C@@H](CC(=O)O)C(=O)N[C@@H](Cc1cccc(Br)c1)C(N)=O [HT-279, Cbz-(1-Me-Trp)-Oa-Asp-Phe(3-Br)-NH2] (Cbz-[Trp(1-Me)][Aoc(2)]D[Phe(3-Br)]-NH2) | −0.19% | 90.99% | –
CSCC[C@H](NC(C)=O)C(=O)N[C@@H](CC(=O)O)C(=O)N[C@@H](Cc1ccccc1)C(N)=O [HT-280, Ac-Met-Asp-Phe-NH2] (Ac-Met-Asp-Phe-NH2) | −0.33% | −0.16% | –
CCCCCC[C@H](NC(C)=O)C(=O)N[C@@H](CC(=O)O)C(=O)N[C@@H](Cc1cccc(Br)c1)C(N)=O [HT-281, Ac-Oa-Asp-Phe(3-Br)-NH2] (Ac-[Aoc(2)]-Asp-[Phe(3-Br)]-NH2) | −0.09% | 0.03% | –
C[C@@H](NC(=O)[C@H](Cc1cccc(Br)c1)NC(=O)[C@H](CC(=O)O)NC(=O)[C@H](CCCCN)NC(=O)[C@H](N)Cc1c[nH]c2ccccc12)C(N)=O [HT-288, D-Trp-Lys-Asp-Phe(3-Br)-D-Ala-NH2] (H-[dW]KD[Phe(3-Br)][dA]-NH2) | – | – | EC50 ([1]; Fluo-8 calcium flux, bound in μM): > 10 µM
CC(C)C[C@H](NC(=O)[C@H](N)Cc1c[nH]c2ccccc12)C(=O)N[C@@H](CC(=O)O)C(=O)N[C@@H](Cc1cccc(Br)c1)C(=O)N[C@H](C)C(N)=O [HT-289, D-Trp-Val-Asp-Phe(3-Br)-D-Ala-NH2] | – | – | EC50 [1, 5]: 3.19 µM
CSCC[C@H](NC(=O)[C@H](N)Cc1c[nH]c2ccccc12)C(=O)N[C@@H](CC(=O)O)C(=O)N[C@@H](Cc1cccc(Br)c1)C(=O)N[C@H](C)C(N)=O [HT-290, D-Trp-Met-Asp-Phe(3-Br)-D-Ala-NH2] (H-[dW]MD[Phe(3-Br)][dA]-NH2) | – | – | EC50 [1, 5]: 6.68 µM
CSCC[C@@H]1NC(=O)[C@H](Cc2c[nH]c3ccccc23)NCCC(=O)CNC(=O)CNC(=O)CNC(=O)CNC(=O)[C@H](Cc2cccc(Br)c2)NC(=O)[C@H](CC(=O)O)NC1=O [HT-291, cyclo(Trp-Met-Asp-Phe(3-Br)-Gly-Gly-Gly-Gly)] | – | – | EC50 [1, 5]: 10.6 µM
CSCC[C@H](NC(=O)[C@H](Cc1c[nH]c2ccccc12)NC(=O)[C@@H](C)N)C(=O)N[C@@H](CC(=O)O)C(=O)N[C@@H](Cc1cccc(Br)c1)C(=O)N[C@H](C)C(N)=O [HT-292, D-Ala-Trp-Met-Asp-Phe(3-Br)-D-Ala-NH2] (H-[dA]WMD[Phe(3-Br)][dA]-NH2) | – | – | EC50 [1, 5]: 1.45 µM

More lines, main results first:

% Act-Ave @ 1 nM [1] | % Act-Ave @ 50 nM [1] | Molecule | other results
0.13% | 0.45% | CSCC[C@H](NC(C)=O)C(=O)N[C@@H](CC(=O)O)C(=O)N[C@@H](Cc1cccc(Br)c1)C(N)=O [HT-282, Ac-Met-Asp-Phe(3-Br)-NH2] (Ac-Met-Asp-[Phe(3-Br)]-NH2) | –
−0.04% | −0.03% | CCCC[C@H](NC(C)=O)C(=O)N[C@@H](CC(=O)O)C(=O)N[C@@H](Cc1cccc(Br)c1)C(N)=O [HT-283, Ac-Nle-Asp-Phe(3-Br)-NH2] (Ac-[Nle]-Asp-[Phe(3-Br)]-NH2) | –
0.01% | 0.09% | CC(=O)N[C@@H](CC(=O)O)C(=O)N[C@@H](Cc1ccccc1)C(N)=O [HT-284, Ac-Asp-Phe-NH2] (Ac-Asp-Phe-NH2) | –
77.83% | 99.10% | HHHHHHSSGGDYMGWKDF-NH2 [HT-287] | –
−0.40% | −0.52% | HHHHHHSSGGWKDF-NH2 [HT-286] | –
